Laboratory results: patent publication US8034572B2, “Receptor for GDNF family ligands” (priority 2006, dated 2011)

Experiments:
GDNF-syndecan-3 complex = biological target: T1, GDNF-syndecan-3 complex (UniProt P33671+P39905); test: Chemical cross-linking of ^125I-GDNF to C6 cells and immunoprecipitation with anti-syndecan-3; format: cell-based, rat; details: heparin 1 μg/ml; HB-GAM 150-fold molar excess; added with ^125I-GDNF
T1 construct: the rat glioma C6 cell line, which expresses syndecan-3; endogenous in cells; host or cells: rat glioma C6 cells (syndecan-3); GDNF purchased from PeproTech or R&D Systems and iodinated
Experimental: Glioma C6 cells were plated on 6-well plates and grown to 70% confluency. Cells were incubated with 1 nM ^125I-GDNF for 2 hours in binding buffer (Dulbecco's modified Eagle's medium, 0.2% BSA and 15 mM Hepes, pH 7.2) on ice. Unbound ligand was removed by washing three times with ice-cold PBS. The chemical cross-linker ethyl-dimethyl-aminopropyl-carbodimide (EDAC) supplemented with N-hydroxysuccinimide (NHS) (Sigma) was incubated with cells for 20 min at room temperature in PBS. The reaction was quenched with TBS for 15 min and cells were lysed in lysis buffer (TBS, 1% Triton X-100, 1% NP-40, 2 mM EDTA, 1 mM PMSF and Complete protease inhibitor mixture from Roche Molecular Biochemicals). Cell lysates were immunoprecipitated with anti-syndecan-3 antibodies (Nolo et al., 1995) and resolved on 7.5% SDS-PAGE. Autoradiography was performed with BAS1500 (Fuji). For heparinase III or PI-PLC treatment cells were incubated with 10 mU/ml heparinase III or with 1 U/ml PI-PLC, respectively for one hour at 37° C., 5% CO2 before ^125I-GDNF addition.

GDNF [1] = biological target: T2, GDNF (Homo sapiens, UniProt P39905); test: SPR: competition of GDNF binding to heparin-BSA cuvette by heparin and desulfated heparins; details: competing out GDNF binding to heparin-BSA cuvette
T2 construct: purchased PeproTech, Ltd. or R&D Systems, Inc
T2 sequence (P39905 78-211 limits assumed): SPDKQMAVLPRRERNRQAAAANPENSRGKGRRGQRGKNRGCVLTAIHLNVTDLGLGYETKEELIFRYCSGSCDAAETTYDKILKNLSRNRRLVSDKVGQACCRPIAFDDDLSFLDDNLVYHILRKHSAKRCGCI
Experimental: (§1) Specifically desulfated heparins (Takano et al., 1998) were used to assess the involvement of different sulfate groups in the GDNF-heparin interaction by following direct binding to GDNF cuvette, or by competing out GDNF binding to the heparin-BSA cuvette. Dissociation constants were determined from direct binding using increasing GDNF concentrations and by fitting the data to R=(Rmax*C)/(Kd+C) for heparin. For desulfated heparins, the best fit was achieved using equation R=(Rmax1*C)/(Kd1+C)+(Rmax2*C)/(Kd2+C), where Kd1 and Kd2 are apparent dissociation constants derived for two heparin sites of different affinities with maximum equilibrium response Rmax1 and Rmax2, respectively.

GDNF [2] = biological target: T2, GDNF; test: SPR: direct binding of heparin or desulfated heparins to GDNF cuvette; details: apparent Kd from equilibrium response, read-out: Kd1
Experimental: as §1

[3] = coinfusion into rat striatum; cited from earlier work
GDNF [4] = biological target: T2, GDNF; test: Scintillation proximity assay: tritium labeled heparin binding to and displacement from GDNF; details: FIG. 11
From the text: The scintillation proximity assay (SPA) technology (Amersham) was used to assay the ability of the low molecular weight molecule (namely low molecular weight heparin from Sigma) to displace tritium labeled heparin from GDNF.
Small beads filled with scintillation liquid are covalently linked with anti-mouse antibodies that can capture mouse anti-FLAG-tag antibodies. In turn, GDNF that we produced by ourselves has a FLAG-tag on its N-terminus. Thus, GDNF is in close proximity to the scintillation beads. The tritium labeled high molecular weight heparin (a kind gift from Ulf Lindahl, Sweden) is administered in the surrounding solution. Labeled heparin binds GDNF, which is sitting on scintillation beads and induces light that is detected. […] This assay can be easily adopted to high-throughput format.
To test the ability of small molecules to displace heparin or heparan sulfates from GDNF they are simply mixed at different concentrations with the labeled heparin and the decrease of the signal is monitored. It does positively correlate with the concentration of the cold heparin. We did it in our study with low molecular weight heparin and got IC50 of approximately 10 nM, which correlates with other binding data (FIG. 11).

T1 sequence (P33671 45-442, one chain of several): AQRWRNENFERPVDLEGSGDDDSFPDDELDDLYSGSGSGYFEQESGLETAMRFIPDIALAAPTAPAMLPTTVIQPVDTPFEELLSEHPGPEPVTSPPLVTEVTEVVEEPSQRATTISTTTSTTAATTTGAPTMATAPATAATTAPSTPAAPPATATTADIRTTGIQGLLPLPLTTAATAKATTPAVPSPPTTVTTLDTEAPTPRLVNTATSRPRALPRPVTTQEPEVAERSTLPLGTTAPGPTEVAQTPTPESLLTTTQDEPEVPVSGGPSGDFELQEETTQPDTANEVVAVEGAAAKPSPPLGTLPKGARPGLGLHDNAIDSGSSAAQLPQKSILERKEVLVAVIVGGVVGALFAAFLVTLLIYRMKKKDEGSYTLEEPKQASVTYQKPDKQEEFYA

IC50 (GDNF [1]) | Kd (GDNF [2]) | IC50 (GDNF [4]) | Substance | effect on ^125I-GDNF binding to syndecan-3 on C6 cells (GDNF-syndecan-3 complex) | biodistribution of coinfused GDNF, NRTN or ARTN [3]
0.06 ng/mL | 9.5 nM | – | heparin | abolished ^125I-GDNF binding to syndecan-3 almost completely | markedly increased their biodistribution
– | – | ~10 nM | low molecular weight heparin | – | –
